Data set [1] relates to GSC primary cell cultures and normal NSC control cells. As to the kind of experiment: alamarBlue cell viability after shRNA knockdown. Conditions: shRNA virus, puromycin selection, one week, FIG. 1A. In kind it is cell-based, human. The source says: (§1) To verify the robustness and reproducibility of PHF5α loss in GSC growth inhibition, the normal NSC control cells and a panel of five GSC primary cell cultures were infected with viruses encoding three different shRNA sequences targeting PHF5α (shPHF5α-133 (SEQ ID NO.:11), shPHF5α-402 (SEQ ID NO.:10), and shPHF5α-861 (SEQ ID NO.:9)), as well as a positive control (shKIF11-555 (SEQ ID NO.:19); blocking kinesin family member 11 (KIF11) prevents centrosome migration, which arrests cells in mitosis) and negative control (shCtrl). Cultures were selected with puromycin, plated at about 1000 cells per well in 96-well plates, and incubated for one week at 37° C./5% CO2 before assaying cell viability using the alamarBlue® assay (Invitrogen, Gand Island, N.Y.). Briefly, resazurin (a blue compound that is non-toxic, cell permeable compound and essentially non-fluorescent) is added to the cell cultures, which is reduced to resorufin upon entering metabolically active cells (in contrast, non-viable or damaged cells cannot do this effectively). Resorufin is a bright red fluorescent molecule that functions as a colorimetric indicator. In addition, all three shRNA viruses were internally validated to knock down PHF5α at both the RNA and protein levels (data not shown).
(In general: The colour change of resazurin is a common sign of viable cells or microbes.)

Data set [2] deals with PHF5α. As to the kind of experiment: immunostained western blot of PHF5α protein after shRNA. Conditions: GSCs (G166, 0827, 0131) and NSCs, relative to shCtrl; FIG. 1B. It counts as cell-based, human.
Description: (B) is an immunostained western blot showing PHF5α protein levels are reduced in GSCs (G166, 0827, 0131) and NSCs when exposed to a short hairpin RNA (shRNA) that reduces PHF5α RNA levels (shPHF5α-133 (SEQ ID NO.:11), shPHF5α-402 (SEQ ID NO.:10), shPHF5α-861 (SEQ ID NO.:9)) relative to the levels of PHF5α in cells treated with a non-silencing control shRNA (shCtrl).
as §1
Background: In western blotting, separated proteins are transferred to a membrane and probed.

For data set [3], the system named is Cells expressing Ras. As to the kind of experiment: sensitivity of Ras-expressing cells to drugs with reported splicing inhibition. It counts as cell-based. Conditions: FIG. 11.
The test system of data set [4] is GSCs. As to the kind of experiment: cell cycle arrest phenotype (rounded cells) in GFP-expressing GSCs after shRNA. In kind it is cell-based, human. Conditions: FIG. 2. The source says:
Arrows point to rounded cells, which are those showing a cell arrest phenotype.
In addition, the GSC and NSC containing two of the shRNA sequences targeting PHF5α, KIF11 (positive control), and a random clone (negative control) were examined by immunofluorescence analysis using DAPI staining and a fluorescent microscope. Cells that appeared balled up are ones that suffered cell cycle arrest, while elongated cells were unaffected in their proliferation. […] In contrast, inhibition of PHF5α produced a striking phenotype of a G2/M mitotic arrest in GSCs, but not in NSCs (data not shown).
Ryzinski et al. (Cytogenet. […] Res. 121:232, 2008) identified PHF5α as a bridge protein capable of connecting members of the U2 snRNP, especially U2AF1 to RNA helicases, especially DDX1. To test whether, out of the possible known or unknown roles in a cell, the splicing functions of PHF5α is an important activity contributing to GSC survival and proliferation, shRNA knockdown similar to Example 2 was performed against each member of this bridging interaction—U2AF1 and DDX1.

Data set [5] relates to GSCs and NSCs. As to the kind of experiment: cell cycle arrest after SSA or SudC1. In kind it is cell-based, human. Conditions: at doses within the efficacy window; data not shown. The source says:
(§2) Along with high MPM-2 staining, and little or no phosphorylated BubR1, this is consistent with a pre-anaphase arrest in which the mitotic checkpoint has not been triggered.

The test system of data set [6] is RNA splicing in GSCs and NSCs. As to the kind of experiment: splicing defects on gels after SudC1. It counts as cell-based, human. Conditions: GSCs versus NSCs; FIG. 16. The source says:
This example also describes the effects of two candidate small molecule inhibitors of the U2 snRNP complex, Spliceostatin A (SSA) and Sudemycin C1 (SudC1). […] (Kaida et al. 2007; Corrionero et al. 2011). […] It was reasoned that if the most relevant GSC-specific function of PHF5A is its function in the splicing activity of the U2 snRNP, then these drugs should show a similar pattern of effects on RNA splicing in GSCs and NSCs. This was indeed the case. […] In addition, after PHF5A knockdown, multiple constitutive exons of the well characterized RTK/Ras signaling effector RAF1 and the cancer-associated deacetylase HDAC6 were skipped GSCs but not in normal NSCs.

Data set [7] has as its system GSC-H2B-GFP cells. As to the kind of experiment: live cell imaging of drug-treated cells. In kind it is cell-based, human. Conditions: for timing of mitoses: GSCs, first hours after drug treatment; for mitotic arrest in live cell imaging: data not shown.
Data set [8] concerns RNA splicing. The following applies: Lagisetti et al. 2008, 2009; Fan et al. 2011; cited from earlier work.
In data set [9] the test system is IMR90+E1A/Ras. As to the kind of experiment: drug response assay, alamarBlue viability. In kind it is cell-based, human. The following applies: 0.08-10.0 μM for 24 hours, viability at 72 hours; FIG. 9A. The source says:
(§3) Approximately 88% of clinical glioblastoma tumors harbor mutations that activate signaling through the Ras/PI3-kinase pathways (The Cancer Genome Atlas Research Network, Nature 455:1061, 2008). Since PHF5α inhibition is detrimental to a range of glioblastoma cell cultures, but not to the normal NSC from which most glioblastomas are thought to arise, transformation from a normal cell to a cancer cell was examined to determine whether PHF5α dependence was acquired during this process. Accordingly, Ras signaling was activated in normal IMR90 fibroblast cells by infecting with a retrovirus encoding the ElA and Ras oncogenes (EIA was included because Ras alone would be lethal in these cells). These partially transformed fibroblasts were probed for their response to shPHF5α inhibition and to a U2 snRNP splicing inhibitor (sudemycin C1). Viral shRNA knockdown was performed as described in the above examples. For drug response assays, cells were plated in 96-well plates and contacted with a range of sudemycin C1 concentrations (0.08, 0.16, 0.31, 0.63, 1.25, 2.50, 5.0 or 10.0 μM) for a period of 24 hours. Media was then removed and replaced with fresh media, then cell viability was measured 72 hours after drug exposure using the alamarBlue® assay (Invitrogen).

Data set [10] relates to normal IMR90 fibroblast cells. As to the kind of experiment: drug response assay, alamarBlue viability. It counts as cell-based, human. Conditions: 0.08-10.0 μM for 24 hours, viability at 72 hours; FIG. 9A.
Description: as §3

In data set [11] the test system is GSCs relative to NSCs (G166 or CB660 cells). As to the kind of experiment: cell viability of GSC or NSC cells after SSA / SudC1 (AlamarBlue). It counts as cell-based, human. Conditions: dilution series; FIGS. 3B and 3C.
Description: as §2

For data set [12], the system named is Non-transformed MEF cells. As to the kind of experiment: viability after sudemycin treatment. In kind it is cell-based, mouse.
Data set [13] has as its system MEF cells with the addition of oncogenic Ras signaling. As to the kind of experiment: viability after sudemycin treatment. It counts as cell-based, mouse.
Description: as §3, with “(Invitrogen). […]” for “(Invitrogen).”

The subject of data set [14] is H2B-GFP expressing GSCs. As to the kind of experiment: metaphase capture assay with MG132. It counts as cell-based, human. Conditions: overnight exposure to drug, then MG132 for 2 hours. As for the experimental part: The GSC-specific G2/M arrest was characterized by performing metaphase capture assays in H2B-GFP expressing GSCs treated with proteasome inhibitor MG132, which arrests mitotic cells at metaphase, blocking APCCdc20-dependent degradation of Cyclin B (Lampson and Kapoor 2005). After overnight exposure to SudC1 or SSA, cells were treated with MG132 for 2 hours. […] It was also observed that the viability loss in drug-treated GSC cultures results from the death of previously arrested mitotic cells and not interphase GSCs, identifying the cancer-specific mitotic arrest as a causative event in cancer cell death due to splicing inhibition.

For data set [15], the target named is U2 snRNP subunit SF3b (Homo sapiens, UniProt O75533+Q7RTV0). Conditions: Kaida et al. 2007; Corrionero et al. 2011; cited from earlier work.

Sequence of PHF5α (Q7RTV0 whole entry): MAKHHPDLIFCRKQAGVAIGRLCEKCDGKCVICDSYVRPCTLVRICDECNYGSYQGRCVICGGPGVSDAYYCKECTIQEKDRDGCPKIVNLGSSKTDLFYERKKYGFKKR

In the case of “shPHF5α-133: shRNA targeting PHF5α, ACTCAACCAAGATCTTCTAAAA, SEQ ID NO. 11 (listed as DNA, chemistry not fully specified)”, the “proliferation of GSCs compared to NSCs” value in [1] was “greater reduction in proliferation of GSCs compared to normal neural stem cells”. Also, in [2], the PHF5α protein levels entry is “reduced”.
In the same order, the values of “shPHF5α-402: shRNA targeting PHF5α, AGCATTTACTTGTTTAACACTT, SEQ ID NO. 10 (listed as DNA, chemistry not fully specified)” are “greater reduction in proliferation of GSCs compared to normal neural stem cells” and “reduced”.
Regarding Pladienolide B, the “differential sensitivity of cells expressing Ras” value (from here on “differential sensitivity”) in data set [3] is “differentially sensitive”.
Still for that read-out and setting: the same measure for `Clc1ccccc1C(c1ccccc1)(c1ccccc1)n1ccnc1` [Clotrimazole]: “not differentially sensitive”.
Regarding “shPHF5α-861: shRNA targeting PHF5α, CGCCCACTAGTCTCATATTATT, SEQ ID NO. 9 (listed as DNA, chemistry not fully specified)”, the “proliferation of GSCs compared to NSCs” value in [1] was “greater reduction in proliferation of GSCs compared to normal neural stem cells”. Further, the PHF5α protein levels entry in [2] is “reduced”. The cell cycle arrest result in [4] is “undergone cell cycle arrest”.
With `Fc1ccc(C(c2ccc(F)cc2)N2CCN(C/C=C/c3ccccc3)CC2)cc1` [flunarizine], the “differential sensitivity” value in data set [3] is “not differentially sensitive”.
As to “DDX1-301: shRNA targeting DDX1, ACACGGTGTTCCTTATGTTATA, SEQ ID NO. 18 (listed as DNA, chemistry not fully specified)”, the cell cycle arrest entry in [4] is recorded as “undergone cell cycle arrest”.
With Sudemycin C1 [SudC1], the cell cycle arrest result in data set [5] was “characteristic cell cycle arrest in GSCs but not NSCs”. In addition, in [6], the splicing defects entry is on record as “dose-dependent GSC-specific splicing defects”. In addition, in data set [7], the timing of mitoses entry is “did not affect the timing of mitoses for several hours after drug treatment”. Also, the “mitotic arrest in live cell imaging” value in data set [7] was “mitotic arrest pre-metaphase”. Further, in [8], the “modulation of RNA splicing” value is recorded as “modulates RNA splicing”. Moreover, the “differential sensitivity” value in data set [3] was “differentially sensitive”. The “sensitivity of cell viability” value is given as “greatly sensitized” in data set [9], “relatively resistant” in data set [10], “relatively resistant” in data set [12] and “greatly sensitized” in data set [13]. Further, the “viability loss in GSCs relative to NSCs” value in data set [11] is given as “greater dose-dependent viability loss in GSCs relative to NSCs”. For the same compound, in data set [14], the “metaphase arrest with MG132” value was “unable to properly arrest”.
As to `CO[C@]1(C)C[C@@]2(CO2)[C@H](O)[C@@H](/C=C/C(C)=C/C[C@@H]2O[C@H](C)[C@H](NC(=O)/C=C\[C@H](C)OC(C)=O)C[C@@H]2C)O1` [SSA, Spliceostatin A], in data set [5], the cell cycle arrest result is given as “characteristic cell cycle arrest in GSCs but not NSCs”. Further, the “binding and inhibition of SF3b” value in data set [15] is “binds to and inhibits”. Besides, in data set [7], the timing of mitoses result is “did not affect the timing of mitoses for several hours after drug treatment” and the “mitotic arrest in live cell imaging” value is reported as “mitotic arrest pre-metaphase”. Also, in data set [3], the “differential sensitivity” value is “differentially sensitive”. For the same compound, in [11], the “viability loss in GSCs relative to NSCs” value is given as “greater dose-dependent viability loss in GSCs relative to NSCs”. Besides, in data set [14], the “metaphase arrest with MG132” value is on record as “unable to properly arrest”.
Turning to `CCN1/C(=C/C(C)=O)Sc2ccc(OC)cc21` [TG003], the “differential sensitivity” value in [3] is listed as “not differentially sensitive”.
For “shU2AF1-100: shRNA targeting U2AF1, CGGCTGTGATTGACTTGAATAA, SEQ ID NO. 1 (listed as DNA, chemistry not fully specified)”, the cell cycle arrest result in [4] is “undergone cell cycle arrest”.
Regarding `[H]/N=C(\N/C(=N/[H])NCCCCCCNC(=N)NC(=N)Nc1ccc(Cl)cc1)Nc1ccc(Cl)cc1` [chlorhexidine], the “differential sensitivity” value in [3] is recorded as “not differentially sensitive”.

Source of the values: patent US20150025017A1, “COMPOSITIONS AND METHODS FOR TREATING CANCER” (Fred Hutchinson Cancer Research Center, priority 2012, published 2015).
